{"source": "patent US20230278997A1", "about": "“BICYCLO[1.1.1]PENTANE COMPOUNDS FOR THE TREATMENT AND PROPHYLAXIS OF HEPATITIS B VIRUS INFECTION” (Hoffmann-La Roche Inc., priority 2020, published 2023)", "key": {"[1]": {"experiment": "Human microsome stability assay", "assay_type": "in vitro ADME", "settings": "1 μM compound, 0.5 mg/mL microsomal protein, 37° C.; detection limit 6.15 mL/min/kg", "protocol": "Human Microsome Stability Assay The human microsomal stability assay is used for early assessment of metabolic stability of a test compound in human liver microsomes. Human liver microsomes (Cat. […] The reactions were initiated by adding NADPH regenerating system. […] Following precipitation and centrifugation, the amount of compound remaining in the samples were determined by LC-MS/MS. Controls of no NADPH regenerating system at zero and 30 minutes were also prepared and analyzed."}, "[2]": {"system": "HBsAg", "experiment": "microbe, parasite or virus in culture", "assay_type": "cell-based, HBV", "settings": "Hepatitis B virus, read-out: HBsAg IC50"}, "[3]": {"system": "HBeAg", "experiment": "microbe, parasite or virus in culture", "assay_type": "cell-based, HBV", "settings": "Hepatitis B virus, read-out: HBeAg IC50"}, "[4]": {"system": "primary human hepatocyte (PHH)", "experiment": "Cytotoxicity in PHH natural infection assay (Cell Counting Kit-8)", "assay_type": "cell-based", "settings": "therapeutic index; CC50 by CCK8 in PHH over HBsAg IC50", "protocol": "Detailed procedures regarding primary human hepatocyte (PHH) HBV natural infection assay are described as below. One tube of frozen PHH (10 million cells) was thawed in 37° C. water bath and then transferred to 20 mL of PHH thawing medium (Sigma, InVitroGRO HT Medium, Cat. 503319) with gently mixing. The cells were then centrifuged at […] for 5 min, the supernatant was discarded and the tube was refilled with 25 mL of PHH plating medium (Sigma, InVitroGRO CP Medium, Cat. 503317). The tube was shaken very gently to re-suspend all cells, and then 50 μl of cells were transferred to each well of a 384-well collagen I coated plate with appropriate liquid handling equipment, e.g. Integra VIAFLO384 or Agilent Bravo. The cells were then cultured for 24 hours in a cell incubator. For HBV infection, after PHH attachment on the culture plate, the plating medium was removed and replenished with PHH culture medium containing HBV virus. The PHH culture medium was prepared with Dulbecco's Modified Eagle Medium (DMEM)/F12 (1:1 in volume ratio) containing 10% fetal bovine serum (Gibco, Cat.10099141), 5 ng/mL human epidermal growth factor (Gibco, Cat.PHG031 IL), 20 ng/mL dexamethasone (Sigma, Cat.D4902-100 mg), 250 ng/mL human recombinant insulin (Gibco, Cat.41400045) and 100 U/mL penicillin. HBV virus at 200 genome equivalent (GE) per cell with 4% PEG8000 (Sigma, Cat.P1458) containing culture medium were added to the PHH culture medium for infection. The cells were then cultured for 24 hours in cell incubator. Then the cell culture supernatant was removed. The HBV-infected PHH were cultured with sandwich culture method with PHH culture medium containing 1% DMSO and 0.25 mg/mL matrix gel for 72 hours. The supernatant was then refreshed with PHH culture medium containing different concentrations of testing compounds for two times with 72-hour interval. At the end of treatment, the supernatant was collected for viral markers measurements, including HBsAg, HBeAg, HBV DNA and cytotoxicity. HBsAg and HBeAg were detected using alphalisa method using their specific antibodies. For HBV DNA detection, HBV DNA Quantitative Fluorescence Diagnostic Kit (Sansure Biotech Inc.) was used following the manufacture's protocol. Cytotoxicity was determined using Cell Counting Kit-8 (CCK8, Dojindo Molecular Technologies, Inc.)."}}, "data": [{"smiles": "CS(=O)(=O)C1(c2ccc(C(=O)NC34CC(c5ncc(-c6ccc(Cl)nc6)s5)(C3)C4)o2)CC1", "note": "[Example 56, N-[3-[5-(6-chloro-3-pyridyl)thiazol-2-yl]-1-bicyclo[1.1.1]pentanyl]-5-(1-methylsulfonylcyclopropyl)furan-2-carboxamide]", "values": [{"measurement": "Clearance of human microsome", "setting": "[1]", "result": "≤6.15", "unit": "mL/min/kg"}]}, {"smiles": "CS(=O)(=O)C1(c2ccc(C(=O)NC34CC(c5nc(-c6ccc(Cl)cc6)ns5)(C3)C4)o2)CC1", "note": "[Example 18, N-[3-[3-(4-chlorophenyl)-1,2,4-thiadiazol-5-yl]-1-bicyclo[1.1.1]pentanyl]-5-(1-methylsulfonylcyclopropyl)furan-2-carboxamide]", "values": [{"measurement": "IC50", "setting": "[2]", "result": 190, "unit": "nM"}, {"measurement": "IC50", "setting": "[3]", "result": 120, "unit": "nM"}, {"measurement": "TI (CC50/IC50 HBsAg)", "setting": "[4]", "result": 39.05}, {"measurement": "Clearance of human microsome", "setting": "[1]", "result": 8.8, "unit": "mL/min/kg"}]}, {"smiles": "CS(=O)(=O)C1(c2ccc(C(=O)NC34CC(c5nc(C6CC6)cs5)(C3)C4)o2)CC1", "note": "[Example 14, N-[3-(4-cyclopropylthiazol-2-yl)-1-bicyclo[1.1.1]pentanyl]-5-(1-methylsulfonylcyclopropyl)furan-2-carboxamide]", "values": [{"measurement": "Clearance of human microsome", "setting": "[1]", "result": "≤6.15", "unit": "mL/min/kg"}]}, {"smiles": "CS(=O)(=O)C1(c2ccc(C(=O)NC34CC(c5nc(-c6ccccc6)ns5)(C3)C4)o2)CC1", "note": "[Example 17, 5-(1-methylsulfonylcyclopropyl)-N-[3-(3-phenyl-1,2,4-thiadiazol-5-yl)-1-bicyclo[1.1.1]pentanyl]furan-2-carboxamide]", "values": [{"measurement": "Clearance of human microsome", "setting": "[1]", "result": "≤6.15", "unit": "mL/min/kg"}]}, {"smiles": "CS(=O)(=O)C1(c2ccc(C(=O)NC34CC(c5nc(-c6ccccc6Cl)cs5)(C3)C4)o2)CC1", "note": "[Example 3, N-[3-[4-(2-chlorophenyl)thiazol-2-yl]-1-bicyclo[1.1.1]pentanyl]-5-(1-methylsulfonylcyclopropyl)furan-2-carboxamide]", "values": [{"measurement": "IC50", "setting": "[2]", "result": 670, "unit": "nM"}, {"measurement": "IC50", "setting": "[3]", "result": 500, "unit": "nM"}, {"measurement": "TI (CC50/IC50 HBsAg)", "setting": "[4]", "result": 8.85}, {"measurement": "Clearance of human microsome", "setting": "[1]", "result": "≤6.15", "unit": "mL/min/kg"}]}, {"smiles": "CS(=O)(=O)C1(c2nsc(C(=O)NC34CC(c5nc(-c6cccc(Cl)c6)cs5)(C3)C4)n2)CC1", "note": "[Example 4, N-[3-[4-(3-chlorophenyl)thiazol-2-yl]-1-bicyclo[1.1.1]pentanyl]-3-(1-methylsulfonylcyclopropyl)-1,2,4-thiadiazole-5-carboxamide]", "values": [{"measurement": "IC50", "setting": "[2]", "result": 170, "unit": "nM"}, {"measurement": "IC50", "setting": "[3]", "result": 120, "unit": "nM"}, {"measurement": "TI (CC50/IC50 HBsAg)", "setting": "[4]", "result": 29.65}, {"measurement": "Clearance of human microsome", "setting": "[1]", "result": "≤6.15", "unit": "mL/min/kg"}]}, {"smiles": "CS(=O)(=O)C1(c2ccn(C(=O)NC34CC(c5nc(-c6ccc(Cl)cc6)cs5)(C3)C4)n2)CC1", "note": "[Example 53, N-[3-[4-(4-chlorophenyl)thiazol-2-yl]-1-bicyclo[1.1.1]pentanyl]-3-(1-methylsulfonylcyclopropyl)pyrazole-1-carboxamide]", "values": [{"measurement": "IC50", "setting": "[2]", "result": 170, "unit": "nM"}, {"measurement": "IC50", "setting": "[3]", "result": 110, "unit": "nM"}, {"measurement": "TI (CC50/IC50 HBsAg)", "setting": "[4]", "result": 21.88}]}, {"smiles": "CS(=O)(=O)C1(c2ccc(C(=O)NC34CC(c5ncc(C6CC6)s5)(C3)C4)o2)CC1", "note": "[Example 23, N-[3-(5-cyclopropylthiazol-2-yl)-1-bicyclo[1.1.1]pentanyl]-5-(1-methylsulfonylcyclopropyl)furan-2-carboxamide]", "values": [{"measurement": "Clearance of human microsome", "setting": "[1]", "result": "≤6.15", "unit": "mL/min/kg"}]}, {"smiles": "CS(=O)(=O)C1(c2ccn(C(=O)NC34CC(c5ncc(-c6ccc(Cl)cc6)s5)(C3)C4)n2)CC1", "note": "[Example 54, N-[3-[5-(4-chlorophenyl)thiazol-2-yl]-1-bicyclo[1.1.1]pentanyl]-3-(1-methylsulfonylcyclopropyl)pyrazole-1-carboxamide]", "values": [{"measurement": "IC50", "setting": "[2]", "result": 60, "unit": "nM"}, {"measurement": "IC50", "setting": "[3]", "result": 50, "unit": "nM"}, {"measurement": "TI (CC50/IC50 HBsAg)", "setting": "[4]", "result": 10.83}]}, {"smiles": "CS(=O)(=O)C1(c2ccc(C(=O)NC34CC(c5nc(C(F)(F)F)cs5)(C3)C4)o2)CC1", "note": "[Example 16, 5-(1-methylsulfonylcyclopropyl)-N-[3-[4-(trifluoromethyl)thiazol-2-yl]-1-bicyclo[1.1.1]pentanyl]furan-2-carboxamide]", "values": [{"measurement": "Clearance of human microsome", "setting": "[1]", "result": "≤6.15", "unit": "mL/min/kg"}]}, {"smiles": "CS(=O)(=O)C1(c2ccc(C(=O)NC34CC(c5nnc(-c6ccc(Cl)cc6)o5)(C3)C4)o2)CC1", "note": "[Example 28, N-[3-[5-(4-chlorophenyl)-1,3,4-oxadiazol-2-yl]-1-bicyclo[1.1.1]pentanyl]-5-(1-methylsulfonylcyclopropyl)furan-2-carboxamide]", "values": [{"measurement": "Clearance of human microsome", "setting": "[1]", "result": "≤6.15", "unit": "mL/min/kg"}]}, {"smiles": "CS(=O)(=O)C1(c2ccc(C(=O)NC34CC(c5cn(-c6ccc(Cl)cc6)nn5)(C3)C4)o2)CC1", "note": "[Example 29, N-[3-[1-(4-chlorophenyl)triazol-4-yl]-1-bicyclo[1.1.1]pentanyl]-5-(1-methylsulfonylcyclopropyl)furan-2-carboxamide]", "values": [{"measurement": "Clearance of human microsome", "setting": "[1]", "result": "≤6.15", "unit": "mL/min/kg"}]}, {"smiles": "CS(=O)(=O)Cc1ncc(C(=O)NC23CC(c4nc(-c5ccc(Cl)cc5)cs4)(C2)C3)o1", "note": "[Example 5, N-[3-[4-(4-chlorophenyl)thiazol-2-yl]-1-bicyclo[1.1.1]pentanyl]-2-(methylsulfonylmethyl)oxazole-5-carboxamide]", "values": [{"measurement": "Clearance of human microsome", "setting": "[1]", "result": "≤6.15", "unit": "mL/min/kg"}]}, {"smiles": "CS(=O)(=O)C1(c2ccc(C(=O)NC34CC(c5ncc(Br)s5)(C3)C4)o2)CC1", "note": "[Example 24, N-[3-(5-bromothiazol-2-yl)-1-bicyclo[1.1.1]pentanyl]-5-(1-methylsulfonylcyclopropyl)furan-2-carboxamide]", "values": [{"measurement": "Clearance of human microsome", "setting": "[1]", "result": "≤6.15", "unit": "mL/min/kg"}]}, {"smiles": "CS(=O)(=O)C1(c2ccc(C(=O)NC34CC(c5ncc(-c6ccc(Cl)cn6)s5)(C3)C4)o2)CC1", "note": "[Example 57, N-[3-[5-(5-chloro-2-pyridyl)thiazol-2-yl]-1-bicyclo[11.11]pentanyl]-5-(1-methylsulfonylcyclopropyl)furan-2-carboxamide]", "values": [{"measurement": "Clearance of human microsome", "setting": "[1]", "result": 15.39, "unit": "mL/min/kg"}]}, {"smiles": "NC(=O)c1cc(C(=O)NC23CC(c4nc(-c5ccc(Cl)cc5)no4)(C2)C3)ccn1", "note": "[Example 36, N4-[3-[3-(4-chlorophenyl)-1,2,4-oxadiazol-5-yl]-1-bicyclo[1.1.1]pentanyl]pyridine-2,4-dicarboxamide]", "values": [{"measurement": "Clearance of human microsome", "setting": "[1]", "result": 11.99, "unit": "mL/min/kg"}]}, {"smiles": "CS(=O)(=O)C1(c2ccc(C(=O)NC34CC(c5ncc(-c6cnc(Cl)cn6)s5)(C3)C4)o2)CC1", "note": "[Example 59, N-[3-[5-(5-chloropyrazin-2-yl)thiazol-2-yl]-1-bicyclo[1.1.1]pentanyl]-5-(1-methylsulfonylcyclopropyl)furan-2-carboxamide]", "values": [{"measurement": "Clearance of human microsome", "setting": "[1]", "result": 6.89, "unit": "mL/min/kg"}]}, {"smiles": "CS(=O)(=O)C1(c2ccc(C(=O)NC34CC(c5nc(-c6ccc(Cl)nc6)cs5)(C3)C4)o2)CC1", "note": "[Example 9, N-[3-[4-(6-chloro-3-pyridyl)thiazol-2-yl]-1-bicyclo[1.1.1]pentanyl]-5-(1-methylsulfonylcyclopropyl)furan-2-carboxamide]", "values": [{"measurement": "Clearance of human microsome", "setting": "[1]", "result": "≤6.15", "unit": "mL/min/kg"}]}, {"smiles": "CS(=O)(=O)C1(c2ncc(C(=O)NC34CC(c5ncc(-c6ccc(Cl)cc6)s5)(C3)C4)o2)CC1", "note": "[Example 55, N-[3-[5-(4-chlorophenyl)thiazol-2-yl]-1-bicyclo[1.1.1]pentanyl]-2-(1-methylsulfonylcyclopropyl)oxazole-5-carboxamide]", "values": [{"measurement": "IC50", "setting": "[2]", "result": 90, "unit": "nM"}, {"measurement": "IC50", "setting": "[3]", "result": 70, "unit": "nM"}, {"measurement": "TI (CC50/IC50 HBsAg)", "setting": "[4]", "result": 89.00}]}, {"smiles": "CS(=O)(=O)C1(c2nnc(C(=O)NC34CC(c5ncc(-c6ccc(Cl)cc6)s5)(C3)C4)o2)CC1", "note": "[Example 20, N-[3-[5-(4-chlorophenyl)thiazol-2-yl]-1-bicyclo[1.1.1]pentanyl]-5-(1-methylsulfonylcyclopropyl)-1,3,4-oxadiazole-2-carboxamide]", "values": [{"measurement": "Clearance of human microsome", "setting": "[1]", "result": "≤6.15", "unit": "mL/min/kg"}]}, {"smiles": "CS(=O)(=O)C1(c2ccc(C(=O)NC34CC(c5ncc(-c6ccccc6)s5)(C3)C4)o2)CC1", "note": "[Example 22, 5-(1-methylsulfonylcyclopropyl)-N-[3-(5-phenylthiazol-2-yl)-1-bicyclo[1.1.1]pentanyl]furan-2-carboxamide]", "values": [{"measurement": "Clearance of human microsome", "setting": "[1]", "result": "≤6.15", "unit": "mL/min/kg"}]}, {"smiles": "CS(=O)(=O)C1(c2ccc(C(=O)NC34CC(c5nsc(-c6ccccc6)n5)(C3)C4)o2)CC1", "note": "[Example 25, 5-(1-methylsulfonylcyclopropyl)-N-[3-(5-phenyl-1,2,4-thiadiazol-3-yl)-1-bicyclo[1.1.1]pentanyl]furan-2-carboxamide]", "values": [{"measurement": "Clearance of human microsome", "setting": "[1]", "result": "≤6.15", "unit": "mL/min/kg"}]}]}
